Where two headings read alike, the source gives them in different places.
Assays:
[1] = tested on: PSMA + PC3-PIP and PSMA-PC3-flu flank xenografts; assay: Biodistribution of At-211 labeled PSMA inhibitors with and without cold blocking agent (Tables 6-8); assay type: in vivo, athymic mice; conditions: mice
[2] = tested on: PiP (tumor) and Flu (tumor); assay: Biodistribution of [125I]VK-03-03 and [125I]VK-03-03-Lu in mice (Table 9); assay type: in vivo
[3] = tested on: preclinical models of human prostate cancer (PC); conditions: Kiess et al., 2016, cited from earlier work
[4] = tested on: PSMA + PC3-PIP and PSMA-PC3-flu flank xenografts; conditions: no blocker, inhibitors reported in WO2017070482, cited from earlier work
[5] = tested on: PSMA+PC3-PIP and PSMA-PC3-flu flank xenografts; assay: Biodistribution of [125I/211At]2 and 3 with and without co-injection of DCIBzL (Example 6); assay type: in vivo, athymic mice; conditions: no co-injection
Excerpt: Final compounds were purified by HPLC.

[6] = tested on: PSMA + PC3-PIP and PSMA-PC3-flu flank xenografts; conditions: without cold blocking agent
Protocol: Final compounds were purified by HPLC. […] Organs were harvested 1, 4, and 24 h post-injection (n=5 per time point).

O=C(O)CC[C@H](NC(=O)N[C@@H](CCCCN(Cc1ccc([211At])cc1)C(=O)CCCCNC(=O)CN1CCN(CC(=O)O)CCN(CC(=O)O)CCN(CC(=O)O)CC1)C(=O)O)C(=O)O [[^211At]VK-02-90]
radioactivity in the stomach [1]: very low | stability in-vivo [1]: stable in-vivo

O=C(O)CC[C@H](NC(=O)N[C@@H](CCCCN(Cc1ccc(Br)cc1)C(=O)CCCCNC(=O)c1cc([125I])cc(C(=O)NCCNC(=O)CN2CCN(CC(=O)O)CCN(CC(=O)O)CCN(CC(=O)O)CC2)c1)C(=O)O)C(=O)O [[^125I]VK-03-03]
Biodistribution Data, Flu (tumor) ([2]; 1 H): 2.0 ± 0.7 | Biodistribution Data, PiP (tumor) ([2]; 1 H): 44.7 ± 12.2 | Biodistribution Data, bladder ([2]; 1 H): 5.0 ± 2.9 | Biodistribution Data, blood ([2]; 1 H): 1.6 ± 0.26 | Biodistribution Data, fat ([2]; 1 H): 3.2 ± 0.7 | Biodistribution Data, heart ([2]; 1 H): 1.6 ± 0.5 | Biodistribution Data, kidney ([2]; 1 H): 132 ± 18.5 | Biodistribution Data, lacrimal gland ([2]; 1 H): 25.4 ± 4.1 | Biodistribution Data, large intestine ([2]; 1 H): 1.2 ± 0.06 | Biodistribution Data, liver ([2]; 1 H): 0.9 ± 0.15 | Biodistribution Data, lung ([2]; 1 H): 4.5 ± 0.6 | Biodistribution Data, muscle ([2]; 1 H): 1.0 ± 0.2 | Biodistribution Data, pancreas ([2]; 1 H): 1.8 ± 0.27 | Biodistribution Data, salivary gland ([2]; 1 H): 5.0 ± 0.86 | Biodistribution Data, small intestine ([2]; 1 H): 0.76 ± 0.13 | Biodistribution Data, spleen ([2]; 1 H): 70.0 ± 20.4 | Biodistribution Data, stomach ([2]; 1 H): 1.0 ± 0.12 | Biodistribution Data, Flu (tumor) ([2]; 4 H): 1.2 ± 0.28 | Biodistribution Data, PiP (tumor) ([2]; 4 H): 57.0 ± 15.9 | Biodistribution Data, bladder ([2]; 4 H): 2.4 ± 0.5 | Biodistribution Data, blood ([2]; 4 H): 0.49 ± 0.08 | Biodistribution Data, fat ([2]; 4 H): 4.1 ± 1.5 | Biodistribution Data, heart ([2]; 4 H): 0.9 ± 0.03 | Biodistribution Data, kidney ([2]; 4 H): 165 ± 14.4 | Biodistribution Data, lacrimal gland ([2]; 4 H): 15.8 ± 4.9 | Biodistribution Data, large intestine ([2]; 4 H): 0.58 ± 0.19 | Biodistribution Data, liver ([2]; 4 H): 0.4 ± 0.2 | Biodistribution Data, lung ([2]; 4 H): 2.3 ± 0.3 | Biodistribution Data, muscle ([2]; 4 H): 0.64 ± 0.22 | Biodistribution Data, pancreas ([2]; 4 H): 1.5 ± 0.05 | Biodistribution Data, salivary gland ([2]; 4 H): 3.5 ± 0.4 | Biodistribution Data, small intestine ([2]; 4 H): 0.37 ± 0.08 | Biodistribution Data, spleen ([2]; 4 H): 37.4 ± 8.9 | Biodistribution Data, stomach ([2]; 4 H): 0.95 ± 0.7 | Biodistribution Data, Flu (tumor) ([2]; 24 H): 0.2 ± 0.09 | Biodistribution Data, PiP (tumor) ([2]; 24 H): 54.1 ± 6.3 | Biodistribution Data, bladder ([2]; 24 H): 1.6 ± 0.75 | Biodistribution Data, blood ([2]; 24 H): 0.09 ± 0.02 | Biodistribution Data, fat ([2]; 24 H): 0.37 ± 0.28 | Biodistribution Data, heart ([2]; 24 H): 0.17 ± 0.08 | Biodistribution Data, kidney ([2]; 24 H): 141 ± 18.3 | Biodistribution Data, lacrimal gland ([2]; 24 H): 2.6 ± 0.76 | Biodistribution Data, large intestine ([2]; 24 H): 0.11 ± 0.06 | Biodistribution Data, liver ([2]; 24 H): 0.09 ± 0.02 | Biodistribution Data, lung ([2]; 24 H): 0.58 ± 0.2 | Biodistribution Data, muscle ([2]; 24 H): 0.1 ± 0.05 | Biodistribution Data, pancreas ([2]; 24 H): 0.26 ± 0.07 | Biodistribution Data, salivary gland ([2]; 24 H): 0.6 ± 0.16 | Biodistribution Data, small intestine ([2]; 24 H): 0.08 ± 0.03 | Biodistribution Data, spleen ([2]; 24 H): 4.9 ± 2.7 | Biodistribution Data, stomach ([2]; 24 H): 0.18 ± 0.06 | clearance of radioactivity in the kidneys ([2]; mouse, in vivo): does not clear over time | tumor uptake ([2]; mouse, in vivo): high and prolonged tumor uptake

O=C(O)CC[C@H](NC(=O)NC(CCCCNC(=O)c1ccc([211At])cc1)C(=O)O)C(=O)O (stereo partly drawn) [YC-I-27, (2S)-2-(3-(1-Carboxy-5-(4-211At-Astatobenzamido)Pentyl)Ureido)-Pentanedioic Acid]
efficacy as PSMA-targeted radiopharmaceutical therapy (RPT) agent [3]: high efficacy | renal toxicity ([3]; due to high uptake and long retention in kidney): caused renal failure | Biodistribution, Blood ([4]; 1 Hour): 1.7 ± 0.3 % injected dose/g | Biodistribution, Flu tumor ([4]; 1 Hour): 2.2 ± 0.4 % injected dose/g | Biodistribution, PIP tumor ([4]; 1 Hour): 17.9 ± 3.0 % injected dose/g | Biodistribution, Spleen ([4]; 1 Hour): 29 ± 10 % injected dose/g | Biodistribution, Stomach ([4]; 1 Hour): 10.1 ± 1.7 % injected dose/g | Biodistribution, kidney ([4]; 1 Hour): 71 ± 12 % injected dose/g | Biodistribution, thyroid ([4]; 1 Hour): 3.7 ± 1.1 % injected dose/g | Biodistribution, Blood ([4]; 4 H): 1.0 ± 0.1 % injected dose/g | Biodistribution, Flu tumor ([4]; 4 H): 1.5 ± 0.2 % injected dose/g | Biodistribution, Spleen ([4]; 4 H): 20.3 ± 3.6 % injected dose/g | Biodistribution, kidney ([4]; 4 H): 60 ± 12 % injected dose/g | Biodistribution, thyroid ([4]; 4 H): 3.8 ± 1.2 % injected dose/g | Biodistribution, Blood ([4]; 21-24 Hour (footnote a)): 0.5 ± 0.05 % injected dose/g | Biodistribution, Flu tumor ([4]; 21-24 Hour (footnote a)): 1.2 ± 0.2 % injected dose/g | Biodistribution, PIP tumor ([4]; 21-24 Hour (footnote a)): 31.1 ± 9.8 % injected dose/g | Biodistribution, Spleen ([4]; 21-24 Hour (footnote a)): 8.0 ± 2.0 % injected dose/g | Biodistribution, Stomach ([4]; 21-24 Hour (footnote a)): 9.4 ± 3.0 % injected dose/g | Biodistribution, kidney ([4]; 21-24 Hour (footnote a)): 57.4 ± 7.4 % injected dose/g | Biodistribution, thyroid ([4]; 21-24 Hour (footnote a)): 6.5 ± 2.0 % injected dose/g

O=C(O)CC[C@H](NC(=O)N[C@@H](CCCCN(Cc1ccc([125I])cc1)C(=O)CCCCNC(=O)CN1CCN(CC(=O)O)CCN(CC(=O)O)CCN(CC(=O)O)CC1)C(=O)O)C(=O)O [[^125I]VK-02-90]
retention of radioactivity, lacrimal glands (LG) ([5]; 1h): 17.4±6.0 % ID/g | retention of radioactivity, salivary glands (SG) ([5]; 1h): 5.1±3.4 % ID/g | retention of radioactivity, kidneys (K) ([5]; 4 h): 162±36 % ID/g | retention of radioactivity, kidneys (K) ([5]; 24 h): 30.6±14.0 % ID/g | Biodistribution, Blood ([6]; 1 H): 1.1 ± 0.3 % injected dose/g | Biodistribution, Flu tumor ([6]; 1 H): 1.4 ± 0.6 % injected dose/g | Biodistribution, Kidneys ([6]; 1 H): 194 ± 25 % injected dose/g | Biodistribution, Lacrimal glands ([6]; 1 H): 17.4 ± 6.0 % injected dose/g | Biodistribution, Pip (tumor) ([6]; 1 H): 58 ± 14 % injected dose/g | Biodistribution, Salivary glands ([6]; 1 H): 5.1 ± 3.4 % injected dose/g | Biodistribution, Spleen ([6]; 1 H): 40.2 ± 16.4 % injected dose/g | Biodistribution, Stomach ([6]; 1 H): 1.1 ± 0.3 % injected dose/g | Biodistribution, Blood ([6]; 4 H): 0.2 ± 0.03 % injected dose/g | Biodistribution, Flu tumor ([6]; 4 H): 0.3 ± 0.06 % injected dose/g | Biodistribution, Kidneys ([6]; 4 H): 162 ± 36 % injected dose/g | Biodistribution, Lacrimal glands ([6]; 4 H): 1.9 ± 0.45 % injected dose/g | Biodistribution, Pip (tumor) ([6]; 4 H): 38 ± 13 % injected dose/g | Biodistribution, Salivary glands ([6]; 4 H): 0.7 ± 0.2 % injected dose/g | Biodistribution, Spleen ([6]; 4 H): 4.7 ± 1.2 % injected dose/g | Biodistribution, Stomach ([6]; 4 H): 0.4 ± 0.2 % injected dose/g | Biodistribution, Blood ([6]; 24 H): 0.02 ± 0.01 % injected dose/g | Biodistribution, Flu tumor ([6]; 24 H): 0.04 ± 0.02 % injected dose/g | Biodistribution, Kidneys ([6]; 24 H): 30.6 ± 14.0 % injected dose/g | Biodistribution, Lacrimal glands ([6]; 24 H): 0.5 ± 0.2 % injected dose/g | Biodistribution, Pip (tumor) ([6]; 24 H): 51 ± 7 % injected dose/g | Biodistribution, Salivary glands ([6]; 24 H): 0.3 ± 0.3 % injected dose/g | Biodistribution, Spleen ([6]; 24 H): 0.7 ± 0.4 % injected dose/g | Biodistribution, Stomach ([6]; 24 H): 0.05 ± 0.03 % injected dose/g
